Data set [1] deals with Mycolicibacterium smegmatis. Kind of data set: Inhibition of oxidative phosphorylation in Mycobacterium smegmatis membrane vesicles assessed as inhibition of NADH driven ATP synthesis by luciferin/luciferase assay. Type of data set: functional.
A short description of data set [2]: Aqueous solubility of the compound. Type of data set: physicochemical. As to conditions: buffer.
Data set [3] deals with T1, Enoyl-[acyl-carrier-protein] reductase [NADH] (Mycobacterium tuberculosis, UniProt P9WGR1).
T1 sequence (P9WGR1 whole entry): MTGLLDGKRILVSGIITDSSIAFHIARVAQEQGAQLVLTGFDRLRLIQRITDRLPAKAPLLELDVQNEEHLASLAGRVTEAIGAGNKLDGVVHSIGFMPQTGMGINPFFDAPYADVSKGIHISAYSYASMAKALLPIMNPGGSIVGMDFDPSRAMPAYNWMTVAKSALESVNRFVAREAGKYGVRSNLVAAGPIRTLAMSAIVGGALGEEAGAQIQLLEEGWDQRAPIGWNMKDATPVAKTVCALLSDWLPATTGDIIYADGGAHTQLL
Description: Inhibition of Mycobacterium tuberculosis InhA using dodecyl coA as substrate by LC-MS/MS analysis

Data set [4] has as its system Mycobacterium tuberculosis. Kind of data set: microbe, parasite or virus in culture. As to conditions: H37Rv, 120 h.
Description: Antimicrobial activity against wild-type Mycobacterium tuberculosis H37Rv assessed as growth inhibition after 5 days by microdilution method
The test system of data set [5] is Pseudomonas aeruginosa. Kind of data set: Antimicrobial activity against Pseudomonas aeruginosa. It counts as functional.
In data set [6] the target is DNA gyrase subunit A/DNA gyrase subunit B (Mycobacterium tuberculosis (strain ATCC 25618 / H37Rv), UniProt P9WG45+P9WG47).
Sequence of DNA gyrase subunit A/DNA gyrase subunit B (P9WG45 whole entry): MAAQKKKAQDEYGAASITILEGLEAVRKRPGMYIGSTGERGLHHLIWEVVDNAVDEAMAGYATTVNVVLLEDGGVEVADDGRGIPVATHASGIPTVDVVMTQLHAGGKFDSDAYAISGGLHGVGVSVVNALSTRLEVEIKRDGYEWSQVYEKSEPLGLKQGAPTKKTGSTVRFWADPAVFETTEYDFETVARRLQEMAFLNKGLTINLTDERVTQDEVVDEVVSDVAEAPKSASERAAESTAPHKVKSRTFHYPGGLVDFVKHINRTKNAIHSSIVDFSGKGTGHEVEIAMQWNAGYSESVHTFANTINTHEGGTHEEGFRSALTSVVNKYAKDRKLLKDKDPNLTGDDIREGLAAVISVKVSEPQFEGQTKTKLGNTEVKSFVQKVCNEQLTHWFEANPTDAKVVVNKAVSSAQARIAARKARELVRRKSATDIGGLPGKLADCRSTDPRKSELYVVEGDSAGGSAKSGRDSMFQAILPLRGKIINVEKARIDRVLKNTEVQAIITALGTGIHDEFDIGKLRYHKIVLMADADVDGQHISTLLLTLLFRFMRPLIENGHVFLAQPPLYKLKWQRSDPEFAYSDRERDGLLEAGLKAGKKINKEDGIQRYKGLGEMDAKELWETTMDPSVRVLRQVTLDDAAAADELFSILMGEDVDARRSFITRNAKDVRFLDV
Sequence of DNA gyrase subunit A/DNA gyrase subunit B (P9WG47 whole entry): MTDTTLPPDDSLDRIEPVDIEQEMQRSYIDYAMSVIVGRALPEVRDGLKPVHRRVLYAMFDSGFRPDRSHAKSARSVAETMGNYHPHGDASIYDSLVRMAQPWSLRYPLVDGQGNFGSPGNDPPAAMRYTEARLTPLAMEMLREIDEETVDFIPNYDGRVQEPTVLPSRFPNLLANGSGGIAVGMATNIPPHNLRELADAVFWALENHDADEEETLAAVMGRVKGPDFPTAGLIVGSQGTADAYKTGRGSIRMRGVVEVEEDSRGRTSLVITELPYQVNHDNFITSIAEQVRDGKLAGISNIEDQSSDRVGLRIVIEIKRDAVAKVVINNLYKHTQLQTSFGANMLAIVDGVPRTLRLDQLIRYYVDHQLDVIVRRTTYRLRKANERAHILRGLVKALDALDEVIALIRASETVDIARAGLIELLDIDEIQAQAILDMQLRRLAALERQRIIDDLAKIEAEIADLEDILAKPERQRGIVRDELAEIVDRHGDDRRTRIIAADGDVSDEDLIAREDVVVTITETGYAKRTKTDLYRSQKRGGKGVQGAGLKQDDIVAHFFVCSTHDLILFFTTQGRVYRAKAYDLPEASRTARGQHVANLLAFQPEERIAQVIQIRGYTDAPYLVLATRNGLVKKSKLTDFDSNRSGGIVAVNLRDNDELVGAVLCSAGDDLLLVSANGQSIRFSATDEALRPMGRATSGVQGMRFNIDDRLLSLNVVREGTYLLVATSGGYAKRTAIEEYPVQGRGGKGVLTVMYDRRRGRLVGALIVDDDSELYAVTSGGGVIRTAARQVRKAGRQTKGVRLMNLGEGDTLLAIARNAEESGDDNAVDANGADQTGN
Description: Inhibition of Mycobacterium tuberculosis DNA gyrase-mediated relaxed pBR322 DNA supercoiling by gel electrophoresis
Data set [7] deals with Haemophilus influenzae. Kind of data set: Antimicrobial activity against Haemophilus influenzae. It counts as functional.
The nature of data set [8]: Lipophilicity, log D of the compound. Type of data set: physicochemical. The conditions noted are these: octanol/water.
Data set [9] relates to Mycobacterium tuberculosis. Kind of data set: microbe, parasite or virus in culture. The conditions noted are these: 120 h.
Description: Antimicrobial activity against Mycobacterium tuberculosis assessed as growth inhibition after 5 days by microdilution method
Data set [10] concerns Mycobacterium tuberculosis. In words: Bactericidal activity against Mycobacterium tuberculosis H37Rv after 5 days. It counts as functional. As to conditions: 120 h.
For data set [11], the system named is Mycobacterium tuberculosis. Type of data set: functional. As to conditions: 120 h.
The subject of data set [12] is Klebsiella pneumoniae. In words: Antimicrobial activity against Klebsiella pneumoniae. Type of data set: functional.
Data set [13] relates to Mycobacterium tuberculosis. Kind of data set: Bactericidal activity against hypoxia induced nonreplicating persistent Mycobacterium tuberculosis H37Rv assessed as concentration required to reduce >/= 2 log10 CFU/ml after 7 days. It counts as functional.
Data set [14] can be described thus: Cytotoxicity against human THP1 cells assessed as cell viability after 72 hrs by resazurin staining-based fluorimetric analysis. The conditions noted are these: THP-1 cells.
Data set [15] has as its system Escherichia coli. In words: Antimicrobial activity against Escherichia coli. Type of data set: functional.
Data set [16] deals with Staphylococcus aureus. Kind of data set: Antimicrobial activity against Staphylococcus aureus. Type of data set: functional.
Data set [17] deals with Streptococcus pneumoniae. Kind of data set: Antimicrobial activity against Streptococcus pneumoniae. Type of data set: functional.
The test system of data set [18] is Mycobacterium tuberculosis. Kind of data set: Bactericidal activity against Mycobacterium tuberculosis H37Rv infected in human THP1 cells assessed as reduction in CFU at 1 to 4 times MIC by time-kill method. It counts as functional, THP-1.

Converted amounts (≈) assume the structure as drawn. A value given as a limit tells only on which side of the number the result lay.

For the molecule `O=S(=O)(NC1CCN(Cc2ccncc2)CC1)c1ccc(-n2cccn2)cc1`, the figures for the IC50 in data set [1], in data set [3] and in [6] were greater than 70 µM, greater than 100 µM and greater than 100 µM, respectively. In data set [2], this molecule registered a solubility of 149 µM (≈ 59.2 µg/mL). For the same molecule, the MIC in [4] is 3.3 µM (≈ 1.31 µg/mL); in [5], greater than 200 µM; in data set [7] it was greater than 200 µM; in data set [9], 1.6 µM (≈ 0.636 µg/mL); in [11] it was 3.3 µM (≈ 1.31 µg/mL); in data set [12], greater than 200 µM. The MIC in [15], in [16] and in [17] was greater than 200 µM each time. The molecule further returned a logD in data set [8] of 2.6. Also, the MBC in data set [10] was 50 µM (≈ 19.9 µg/mL). The Activity in data set [13] amounted to 25 µM. For the same molecule, in [14], the CC50 at 72 h is greater than 64 µM.

Turning to `CC1COC2(CCN(c3nc(=O)c4cc(C(F)(F)F)cc([N+](=O)[O-])c4s3)CC2)O1` (stereo not drawn), the MIC in data set [4] and in data set [9] was 0.01 µM (≈ 0.00431 µg/mL) throughout.

Regarding `Cc1cccc2c(CN3CCCC3)c(-c3ccccc3)[nH]c12`, the concentration in solution in data set [2] (solubility) came to 752 µM (≈ 218 µg/mL). For the same molecule, in data set [8], the log distribution coefficient (logD) is 1.8.

Consider `COc1nc2ccc(Br)cc2cc1[C@@H](c1ccccc1)[C@@](O)(CCN(C)C)c1cccc2ccccc12` [BEDAQUILINE], for which the concentration for half-maximal inhibition (IC50) in data set [1] is 0.001 µM.

Molecule `O=S(=O)(NC1CCN(Cc2ccncc2)CC1)c1ccc(-n2cccn2)cn1` showed a solubility in data set [2] of 1000 µM (≈ 398 µg/mL). Besides, in data set [8], the logD was 1.7.

Take `Cc1cccc2c(CN3CCC(NS(C)(=O)=O)C3)c(-c3ccccc3)[nH]c12` (racemic): the MIC in data set [4] is 1.6 µM (≈ 0.614 µg/mL); in data set [5] it was greater than 200 µM; in [7], greater than 200 µM; in data set [11], 1.6 µM (≈ 0.614 µg/mL); in data set [12], greater than 200 µM; in [15], greater than 200 µM. For the same molecule, the MIC in data set [16] and in data set [17] was greater than 200 µM each time. In data set [10], the MBC stood at 1.6 µM (≈ 0.614 µg/mL). Besides, in data set [13], the Activity was greater than 200 µM. In addition, the CC50 at 72 h in [14] worked out at 32 µM.

With `COCCN(C1CCN(Cc2c(-c3ccccc3)[nH]c3c(C)cccc23)C1)S(C)(=O)=O` (stereo not drawn), the figures for the IC50 in [1], in data set [3] and in [6] were 15.6 µM, greater than 100 µM and greater than 100 µM, respectively. The molecule also had a solubility in [2] of 5.4 µM (≈ 2.38 µg/mL). Also, the MIC was 0.8 µM (≈ 0.353 µg/mL) in [4]; greater than 200 µM in data set [5]; greater than 200 µM in data set [7]; 0.8 µM (≈ 0.353 µg/mL) in data set [9]; 0.8 µM (≈ 0.353 µg/mL) in [11]; greater than 200 µM in [12]. Moreover, the MIC in [15], in data set [16] and in [17] was greater than 200 µM in each case. The molecule also came in with a logD in [8] of 3. In data set [10], this molecule came in with an MBC of 3.8 µM (≈ 1.68 µg/mL). Moreover, the Activity in data set [13] turned out to be 3.1 µM. Moreover, the “fold change (FC)” value in data set [18] is recorded as 1.5. The CC50 at 72 h in [14] is greater than 64 µM.

Consider `Cc1cc(-n2cccn2)ccc1S(=O)(=O)NC1CCN(Cc2ccncc2)CC1`, for which the solubility in data set [2] is 66 µM (≈ 27.2 µg/mL). The MIC is 0.8 µM (≈ 0.329 µg/mL) in [4]; greater than 200 µM in data set [5]; greater than 200 µM in [7]; 0.8 µM (≈ 0.329 µg/mL) in data set [11]; greater than 200 µM in data set [12]; greater than 200 µM in data set [15]. In addition, the MIC in data set [16] and in data set [17] was greater than 200 µM each time. The molecule further displayed a logD in [8] of 2.3. The same molecule displayed an MBC in data set [10] of 1.6 µM (≈ 0.658 µg/mL). Besides, the Activity in [13] was greater than 200 µM. Further, in [18], the “fold change (FC)” value was found to be 1.5. For the same molecule, the CC50 at 72 h in data set [14] turned out to be 32 µM.

Take `CO[C@H]1/C=C/O[C@@]2(C)Oc3c(C)c(O)c4c(O)c(c(/C=N/N5CCN(C)CC5)c(O)c4c3C2=O)NC(=O)/C(C)=C\C=C\[C@H](C)[C@H](O)[C@@H](C)[C@@H](O)[C@@H](C)[C@H](OC(C)=O)[C@@H]1C` [RIFAMPIN]: the MIC in data set [4] and in [9] was 0.003 µM (≈ 0.00247 µg/mL) each time.

`COCCN(C1CCN(Cc2c(-c3ccccc3)[nH]c3c(OC)cccc23)C1)S(C)(=O)=O` (stereo not drawn) yielded a solubility in data set [2] of 103 µM (≈ 47.1 µg/mL). In addition, the pH-dependent lipophilicity (logD) in [8] was 2.8.

In the case of `NNC(=O)c1ccncc1` [ISONIAZID], the MIC in data set [4] was 0.5 µM (≈ 0.0686 µg/mL); in [9], greater than 7.5 µM.

Values taken from ChEMBL document CHEMBL3351608, “2-Phenylindole and Arylsulphonamide: Novel Scaffolds Bactericidal against Mycobacterium tuberculosis” (ACS Med Chem Lett, 2014).
